molecular target: T1, p53 Y220C (Homo sapiens, UniProt P04637, Y220C); assay: In vitro DNA binding activity assay (HTRF / TR-FRET): stabilization of p53 Y220C and increase of its DNA binding activity; format: biochemical; conditions: recombinant His-tagged p53 Y220C DNA binding domain (aa 94-312), biotin-labeled consensus DNA, incubated at 27° C. or 29° C. for 60 min
T1 construct: The recombinant protein was a truncation mutant containing only amino acids 94-312 of p53; made in house; host or cells: E. coli
Procedure, shortened: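 His-tagged p53 Y220C, E. coli-expressed, binding biotin-labeled consensus DNA measured by HTRF (anti-His-APC, streptavidin-europium). Compounds from 4.5 mM DMSO stocks, 3-fold serial dilutions; incubations at room temperature 15 min, then 20 min. SC150 = concentration raising DNA binding by 50%.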

T1 sequence (P04637 94-312, change not shown): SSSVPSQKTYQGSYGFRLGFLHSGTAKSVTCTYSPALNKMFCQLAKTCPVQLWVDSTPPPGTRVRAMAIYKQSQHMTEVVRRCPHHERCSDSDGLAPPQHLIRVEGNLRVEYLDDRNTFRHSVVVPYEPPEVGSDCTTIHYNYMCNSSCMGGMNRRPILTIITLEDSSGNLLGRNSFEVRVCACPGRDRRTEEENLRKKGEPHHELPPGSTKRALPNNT

SMILES | SC150 (concentration of the compound required to increase the DNA binding activity by 50%)
CN(C)c1cc(S(C)(=O)=O)ccc1OCC#Cc1cc2c(N[C@H]3CC[C@@H](N(C)C)CC3)cccc2n1CC(F)(F)F [Compound 111A, (1S,4S)-N^4-(2-{3-[2-(dimethylamino)-4-methanesulfonyl-phenoxy]prop-1-yn-1-yl}-1-(2,2,2-trifluoroethyl)-1H-indol-4-yl)-N^1,N^1-dimethylcyclohexane-1,4-diamine] | ++++ (++++ = 0.2 μM ≤ SC150 < 1 μM)
COc1cc(C(C)(C)C#N)ncc1NCC#Cc1cc2c(NC3CCOCC3)cccc2n1CC(F)(F)F [Compound 995A, 2-{4-methoxy-5-[(3-{4-[(oxan-4-yl)amino]-1-(2,2,2-trifluoroethyl)-1H-indol-2-yl}prop-2-yn-1-yl)amino]pyridin-2-yl}-2-methylpropanenitrile] | + (+ = 0 μM ≤ SC150 < 0.05 μM)
COCC(O)CN1CCC(Nc2cccc3c2cc(C#CCNc2ccc(S(C)(=O)=O)cc2)n3CC(F)(F)F)CC1 (stereo not shown) [Compound 672A, 1-{4-[(2-{3-[(4-methanesulfonylphenyl)amino]prop-1-yn-1-yl}-1-(2,2,2-trifluoroethyl)-1H-indol-4-yl)amino]piperidin-1-yl}-3-methoxypropan-2-ol] | + (+ = 0 μM ≤ SC150 < 0.05 μM)
CS(=O)(=O)c1ccc(NCC#Cc2cc3c(N[C@H]4CC[C@H](N5CC6(COC6)C5)CC4)cccc3n2CC(F)(F)F)c(OCCO)c1 [Compound 225A, 2-(5-methanesulfonyl-2-{[3-(4-{[(1R,4R)-4-{2-oxa-6-azaspiro[3.3]heptan-6-yl}cyclo-hexyl]amino}-1-(2,2,2-trifluoroethyl)-1H-indol-2-yl)prop-2-yn-1-yl]amino}phenoxy)ethan-1-ol] | + (+ = 0 μM ≤ SC150 < 0.05 μM)
COc1cc(C(=O)O)ccc1NCC#Cc1cc2c(NC3CCN(C4CC4)CC3)cccc2n1CC(F)(F)F [Compound 721A, 4-[(3-{4-[(1-cyclopropylpiperidin-4-yl)amino]-1-(2,2,2-trifluoroethyl)-1H-indol-2-yl}prop-2-yn-1-yl)amino]-3-methoxybenzoic acid] | + (+ = 0 μM ≤ SC150 < 0.05 μM)
COCC(O)CN1CCC(Nc2cccc3c2cc(C#CCNc2ccc(S(C)(=O)=O)cc2Cl)n3CC(F)(F)F)CC1 (stereo not shown) [Compound 713A, 1-{4-[(2-{3-[(2-chloro-4-methanesulfonylphenyl)amino]prop-1-yn-1-yl}-1-(2,2,2-trifluoroethyl)-1H-indol-4-yl)amino]piperidin-1-yl}-3-methoxypropan-2-ol] | + (+ = 0 μM ≤ SC150 < 0.05 μM)
COc1cc(C(=O)NCC(COC(=O)C(C)C)OC(=O)C(C)C)ccc1NCC#Cc1cc2c(N[C@@H]3CCN(C)C[C@@H]3F)cccc2n1CC(F)(F)F (stereo partly drawn) [Compound 967A, 1-[(4-{[3-(4-{[(3S,4R)-3-fluoro-1-methylpiperidin-4-yl]amino}-1-(2,2,2-trifluoroethyl)-1H-indol-2-yl)prop-2-yn-1-yl]amino}-3-methoxyphenyl)formamido]-3-[(2-methylpropanoyl)oxy]propan-2-yl 2-methylpropanoate] | + (+ = 0 μM ≤ SC150 < 0.05 μM)
COCC(O)CN1CCC(Nc2cccc3c2cc(C#CCNc2ccc(S(C)(=O)=O)cc2OC)n3CC#N)CC1 (stereo not shown) [Compound 699A, 2-(4-{[1-(2-hydroxy-3-methoxypropyl)piperidin-4-yl]amino}-2-{3-[(4-methanesulfonyl-2-methoxyphenyl)amino]prop-1-yn-1-yl}-1H-indol-1-yl)acetonitrile] | + (+ = 0 μM ≤ SC150 < 0.05 μM)
COc1cc(C(=O)N[C@@H](CCC(N)=O)C(=O)O)ccc1NCC#Cc1cc2c(N[C@@H]3CCN(C)C[C@@H]3F)cccc2n1CC(F)(F)F [Compound 930A, (2S)-4-carbamoyl-2-[(4-{[3-(4-{[(3S,4R)-3-fluoro-1-methylpiperidin-4-yl]amino}-1-(2,2,2-trifluoroethyl)-1H-indol-2-yl)prop-2-yn-1-yl]amino}-3-methoxyphenyl)formamido]butanoic acid] | + (+ = 0 μM ≤ SC150 < 0.05 μM)
CCCn1c(C#CCNc2ccc(S(C)(=O)=O)cc2OC)cc2c(NC3CCN(CC(O)COC)CC3)cccc21 (stereo not shown) [Compound 697A, 1-{4-[(2-{3-[(4-methanesulfonyl-2-methoxyphenyl)amino]prop-1-yn-1-yl}-1-propyl-1H-indol-4-yl)amino]piperidin-1-yl}-3-methoxypropan-2-ol] | + (+ = 0 μM ≤ SC150 < 0.05 μM)
COC[C@H](CN1CCC(Nc2cccc3c2cc(C#CCNc2ccc(S(C)(=O)=O)cc2OC)n3CC(F)(F)F)CC1)OC(=O)C(C)C [Compound 638A, (2S)-1-{4-[(2-{3-[(4-methanesulfonyl-2-methoxyphenyl)amino]prop-1-yn-1-yl}-1-(2,2,2-trifluoroethyl)-1H-indol-4-yl)amino]piperidin-1-yl}-3-methoxypropan-2-yl 2-methylpropanoate] | + (+ = 0 μM ≤ SC150 < 0.05 μM)
COc1cc(S(C)(=O)=O)ccc1N(C)CC#Cc1cc2c(NC3CCN(C)CC3)cccc2n1CC(F)(F)F [Compound 478A, 2-{3-[(4-methanesulfonyl-2-methoxyphenyl) (methyl)amino]prop-1-yn-1-yl}-N-(1-methylpiperidin-4-yl)-1-(2,2,2-trifluoroethyl)-1H-indol-4-amine] | ++++ (++++ = 0.2 μM ≤ SC150 < 1 μM)
COc1cc(S(C)(=O)=O)ccc1NCC#Cc1cc2c(N[C@@H]3C[C@@H](C)O[C@@H](C)C3)cccc2n1CC(F)(F)F [Compound 1028A, 2-{3-[(4-methanesulfonyl-2-methoxyphenyl)amino]prop-1-yn-1-yl}-N-[(2R,4S,6S)-2,6-dimethyloxan-4-yl]-1-(2,2,2-trifluoroethyl)-1H-indol-4-amine] | +++ (+++ = 0.1 μM ≤ SC150 < 0.2 μM)
CN(C)[C@H]1CC[C@H](Nc2cccc3c2cc(C#CCNc2ccc(S(C)(=O)=O)cc2OCC(F)(F)F)n3CC(F)(F)F)CC1 [Compound 92A, (1R,4R)-N^4-[2-(3-{[4-methanesulfonyl-2-(2,2,2-trifluoroethoxy)phenyl]amino}prop-1-yn-1-yl)-1-(2,2,2-trifluoro-ethyl)-1H-indol-4-yl]-N^1,N^1-dimethylcyclo-hexane-1,4-diamine] | + (+ = 0 μM ≤ SC150 < 0.05 μM)

Other lines, results leading:

SC150 (concentration of the compound required to increase the DNA binding activity by 50%) | SMILES
+ (+ = 0 μM ≤ SC150 < 0.05 μM) | COCC(=O)N1CC[C@H](Nc2cccc3c2cc(C#CCNc2ccc(S(C)(=O)=O)cc2OC)n3CC(F)(F)F)[C@H](F)C1 [Compound 867A, 1-[(3R,4S)-3-fluoro-4-[(2-{3-[(4-methanesulfonyl-2-methoxyphenyl)amino]prop-1-yn-1-yl}-1-(2,2,2-trifluoroethyl)-1H-indol-4-yl)amino]piperidin-1-yl]-2-methoxyethan-1-one]
++++ (++++ = 0.2 μM ≤ SC150 < 1 μM) | COc1cc(S(C)(=O)=O)ccc1NCC#Cc1cc2c(NC(=O)NC3CCN(C)CC3)cccc2n1CC(F)(F)F [Compound 6A, 3-(2-{3-[(4-methanesulfonyl-2-methoxyphenyl)amino]prop-1-yn-1-yl}-1-(2,2,2-trifluoroethyl)-1H-indol-4-yl)-1-(1-methylpiperidin-4-yl)urea]
+ (+ = 0 μM ≤ SC150 < 0.05 μM) | CCOc1cc(S(C)(=O)=O)ccc1NCC#Cc1cc2c(N[C@H]3CCN(C)C[C@H]3F)cccc2n1CC(F)(F)F [Compound 844A]
+ (+ = 0 μM ≤ SC150 < 0.05 μM) | CCN1CC[C@H](Nc2cccc3c2cc(C#CCNc2ccc(C(=O)O)cc2OC)n3CC(F)(F)F)[C@H](F)C1 (racemic) [Compound 958A, 4-((3-(4-(((3R,4S)-1-ethyl-3-fluoropiperidin-4-yl)amino)-1-(2,2,2-trifluoroethyl)-1H-indol-2-yl)prop-2-yn-1-yl)amino)-3-methoxybenzoic acid]
+ (+ = 0 μM ≤ SC150 < 0.05 μM) | COc1cc(S(N)(=O)=O)ccc1NCC#Cc1cc2c(N[C@@H]3CCN(C[C@H](COC(C)=O)OC(C)=O)C[C@@H]3F)cccc2n1CC(F)(F)F (racemic) [Compound 799A, (2R)-1-(acetyloxy)-3-[(3RS,4SR)-3-fluoro-4-[(2-{3-[(2-methoxy-4-sulfamoylphenyl)amino]prop-1-yn-1-yl}-1-(2,2,2-trifluoroethyl)-1H-indol-4-yl)amino]piperidin-1-yl]propan-2-yl acetate]
+ (+ = 0 μM ≤ SC150 < 0.05 μM) | COC(=O)c1ccc(NCC#Cc2cc3c(N[C@@H]4CCN(CC(=O)N(C)C)C[C@@H]4F)cccc3n2CC(F)(F)F)c(OC)c1 [Compound 913A, methyl 4-{[3-(4-{[(3S,4R)-1-[(dimethylcarbamoyl)methyl]-3-fluoropiperidin-4-yl]amino}-1-(2,2,2-trifluoroethyl)-1H-indol-2-yl)prop-2-yn-1-yl]amino}-3-methoxybenzoate]
+ (+ = 0 μM ≤ SC150 < 0.05 μM) | COc1cc(C(=O)O)ccc1NCC#Cc1cc2c(N[C@@H]3CCN(C[C@H](C)O)C[C@@H]3F)cccc2n1CC(F)(F)F (single isomer, unassigned) [Compound 921A]
+ (+ = 0 μM ≤ SC150 < 0.05 μM) | COc1cc(S(C)(=O)=O)ccc1NCC#Cc1cc2c(NC3CCN(CCOC(C)=O)CC3)cccc2n1CC(F)(F)F [Compound 565A, 2-{4-[(2-{3-[(4-methanesulfonyl-2-methoxyphenyl)amino]prop-1-yn-1-yl}-1-(2,2,2-trifluoroethyl)-1H-indol-4-yl)amino]piperidin-1-yl}EtOAc]

Source: patent US12428406B2 (PMV Pharmaceuticals, Inc., priority 2019, dated 2025)
